According to patent US5266591A, “Ethanolamine benzoate compounds” (Adir et Compagnie, priority 1991, dated 1993):
pIC50: −log10 of the molar value. Read-outs that look alike come from different tables or passages of the source.

What was measured:
[1] = tested on: 52-week-old male SDCD rats; assay: Chronic treatment per os of 52-week-old male SDCD rats (weight, insulinaemia, glycaemia, glucose tolerance, lipids); type: in vivo, rat; conditions: 14 days; for % weight change: 52-week-old male SDCD rats; for Basal insulinaemia % change / Cholesterol % change / Glucose tolerance K 10^-2 % change / Glycaemia % change / Triglyceride % change: vs control
Experimental: A. Study of the Effect of a Chronic Treatment Administered Per OS to 52-Week-Old Male SDCD Rats The tests are carried out on rats that have weight anomalies associated with hyperinsulism and hyperglyceridaemia. on the one hand the effect of a prolonged treatment with the product of Example 1 and the reference substances on those anomalies, and In this experiment, adult male SPRAGUE DAWLEY rats were used in groups of 5 to 12 animals. […]
a reduction in glucose tolerance, an increase in basal insulinaemia, and an increase in plasma lipids.
The housing (from 9 to 52 weeks) of these rats was effected in a chamber at a temperature regulated at from 21° to 22° C. which was subjected to a fixed cycle of light (from 7.30 to 19.30 hours) and darkness (from 19.30 to 7.30 hours). Their food consisted of a maintenance diet (UAR A 03); water and food were supplied "ad libitum", with the exception of the night-fasting preceding the tests, when the food was removed.
9 days before the beginning of the experiment (d-9), the rats are divided into groups by randomisation based on weight.
5 days before the beginning of the experiment (d-5) the rats are conditioned by administering a gum solution.
The first day of the experiment (d1), the products to be tested are administered to the rats at different doses twice per day. More precisely, the products are administered suspended in the gum between 9.00 and 10.00 hours and 16.00 and 17.00 hours for 14 days. The treated animals are weighed daily.
On day 15 the rats (fasted for 18 hours) are sacrificed by decapitation. The blood is immediately collected in a cupule. An amount (50 μl ) is transferred into 500 μl of uranyl acetate for determining the glycaemia. An amount of 3 ml is transferred into a tube containing a solution of heparin (30 μl per 1 ml of whole blood) and centrifuged to separate the plasma. Another amount of 300 μl is transferred to a tube containing 15 μl of a solution of EDTA/NaF for determining the lactates.

esters of cholesterol = assay: Incorporation of oleate in the esters of cholesterol; type: cell-based; conditions: for inhibition at 10 µM: read-out: Incorporation of oleate in the esters of cholesterol
[2] = tested on: LDL (low-density lipoproteins); assay: In vitro LDL oxidation by monocytes; type: cell-based; conditions: for In vitro LDL oxidation by monocytes, activity: at 10^-4 M
Experimental: (§1) A comparative study between the product of Example 1 and the reference substances (benfluorex, dimethyl biguanide) with respect to in vitro LDL oxidation was carried out.

[3] = tested on: LDL (low-density lipoproteins); assay: In vitro LDL oxidation by copper; type: biochemical
Experimental: as §1

conscious dogs = assay: Hypotensive effect in conscious dogs (sphygmomanometer on the tail); type: in vivo; conditions: conscious dog, 5 mg/kg p.o., n = 4
Experimental: The arterial pressure was measured by external pressure band (sphygmomanometer) on the tail of the dog, before and after treatment with the product of Example 1 at a dose of 5 mg/kg p.o..

SMILES	% weight change ([1]; 1 mg/kg x2 per day p.o.) [%]	Basal insulinaemia % change ([1]; 1 mg/kg x2 per day p.o.) [%]	Cholesterol % change ([1]; 1 mg/kg x2 per day p.o.) [%]	Glucose tolerance K 10^-2 % change ([1]; 1 mg/kg x2 per day p.o.)	Glycaemia % change ([1]; 1 mg/kg x2 per day p.o.)	Triglyceride % change ([1]; 1 mg/kg x2 per day p.o.) [%]	% weight change ([1]; 2.5 mg/kg x2 per day p.o.) [%]	Basal insulinaemia % change ([1]; 2.5 mg/kg x2 per day p.o.) [%]	Cholesterol % change ([1]; 2.5 mg/kg x2 per day p.o.) [%]	Glucose tolerance K 10^-2 % change ([1]; 2.5 mg/kg x2 per day p.o.)	Glycaemia % change ([1]; 2.5 mg/kg x2 per day p.o.) [%]	Triglyceride % change ([1]; 2.5 mg/kg x2 per day p.o.) [%]	In vitro LDL oxidation by monocytes, activity [2]	also measured
CC(Cc1cccc(C(F)(F)F)c1)NCCOC(=O)c1ccccc1 (stereo not shown) [Benfluorex]	-2	-10	-20	+30%	-10%	-43	-6	-16	-30	+25%	-12	-44	inactive	inhibition at 10 µM (esters of cholesterol; at 10^-5 M): 30%; In vitro LDL oxidation by copper, activity ([3]; at 10^-4 M): inactive
C[C@@H](Cc1cccc(C(F)(F)F)c1)NCCOC(=O)c1ccc(CCNC(=O)CC(c2ccccc2)c2ccccc2)cc1 [Example 1, (S)-1-(m-trifluoromethylphenyl)-2-{β-{4-[2-(N-(3,3-diphenylpropionyl)amino)ethyl]benzoyloxy}ethylamino}propane]	-1.4	-15	0	+23%	+8%	-10	-3	-26	0	+30%	0	-20		inhibition at 10 µM (esters of cholesterol): 70%; pIC50 ([2]; read-out: In vitro LDL oxidation by monocytes, IC50): 4.30; pIC50 [3]: 4.30; Decrease in arterial pressure, diastolic AP (conscious dogs): -20 to -27 mmHg; Decrease in arterial pressure, systolic AP (conscious dogs): -15 to -22 mmHg
CN(C)C(=N)NC(=N)N [Dimethyl biguanide]													inactive	Incorporation of oleate in the esters of cholesterol (esters of cholesterol; at 10^-5 M): inactive
